Test results as given in patent publication US11178873B2, “Cyclic N-carboxamide compounds useful as herbicides” (FMC CORPORATION, priority 2015, dated 2021).

Key:
Type in all cases: in vivo
[1] = system: pigweed (Amaranthus retroflexus); assay: Test A postemergence, pigweed; settings: 0 to 100 scale, 0 no effect, 100 complete control
Source text: (§1) Seeds of plant species selected from barnyardgrass (Echinochloa crus-galli), crabgrass, large (large crabgrass, Digitaria sanguinalis), kochia (Kochia scoparia), ragweed (common ragweed, Ambrosia elatior), morningglory (Ipomoea spp.), velvetleaf (Abutilon theophrasti), ryegrass, Italian (Italian ryegrass, Lolium multiflorum), foxtail, giant (giant foxtail, Setaria faberii), wheat (Triticum aestivum), corn (Zea mays), and pigweed (Amaranthus retroflexus), were planted into a blend of loam soil and sand and treated preemergence with a directed soil spray using test chemicals formulated in a non-phytotoxic solvent mixture which included a surfactant. At the same time, plants selected from these crop and weed species and also blackgrass (Alopecurus myosuroides), and galium (catchweed bedstraw, Galium aparine), were planted in pots containing the same blend of loam soil and sand and treated with postemergence applications of test chemicals formulated in the same manner. Plants ranged in height from 2 to 10 cm and were in the one- to two-leaf stage for the postemergence treatment. Treated plants and untreated controls were maintained in a greenhouse for approximately 10 d, after which time all treated plants were compared to untreated controls and visually evaluated for injury. Plant response ratings, summarized in Table A, are based on a 0 to 100 scale where 0 is no effect and 100 is complete control. A dash (-) response means no test result.

[2] = system: barnyardgrass (Echinochloa crus-galli); assay: Test A preemergence, barnyardgrass; settings: 0 to 100 scale, 0 no effect, 100 complete control
Source text: as §1

[3] = system: rice (Oryza sativa); assay: Test B flooded paddy test, rice; settings: Flood, scale 0 to 100 (0 no effect, 100 complete control), 13 to 15 d
Procedure: (§2) Plant species in the flooded paddy test selected from rice (Oryza sativa), sedge, umbrella (small-flower umbrella sedge, Cyperus difformis), ducksalad (Heteranthera limosa), and barnyardgrass (Echinochloa crus-galli) were grown to the 2-leaf stage for testing. At time of treatment, test pots were flooded to 3 cm above the soil surface, treated by application of test compounds directly to the paddy water, and then maintained at that water depth for the duration of the test. Treated plants and controls were maintained in a greenhouse for 13 to 15 d, after which time all species were compared to controls and visually evaluated. Plant response ratings, summarized in Table B, are based on a scale of 0 to 100 where 0 is no effect and 100 is complete control. A dash (-) response means no test result.

[4] = system: pigweed (Amaranthus retroflexus); assay: Test A preemergence, pigweed; settings: 0 to 100 scale, 0 no effect, 100 complete control
Source text: as §1

[5] = system: ragweed (common ragweed, Ambrosia elatior); assay: Test A preemergence, ragweed; settings: 0 to 100 scale, 0 no effect, 100 complete control
Source text: as §1

[6] = system: ragweed (common ragweed, Ambrosia elatior); assay: Test A postemergence, ragweed; settings: 0 to 100 scale, 0 no effect, 100 complete control
Source text: as §1

[7] = system: foxtail, giant (giant foxtail, Setaria faberii); assay: Test A preemergence, foxtail, giant; settings: 0 to 100 scale, 0 no effect, 100 complete control
Source text: as §1

[8] = system: corn (Zea mays); assay: Test A postemergence, corn; settings: 0 to 100 scale, 0 no effect, 100 complete control
Source text: as §1

[9] = system: kochia (Kochia scoparia); assay: Test A preemergence, kochia; settings: 0 to 100 scale, 0 no effect, 100 complete control
Source text: as §1

[10] = system: ducksalad (Heteranthera limosa); assay: Test B flooded paddy test, ducksalad; settings: Flood, scale 0 to 100 (0 no effect, 100 complete control), 13 to 15 d
Procedure: as §2

[11] = system: kochia (Kochia scoparia); assay: Test A postemergence, kochia; settings: 0 to 100 scale, 0 no effect, 100 complete control
Source text: as §1

[12] = system: ryegrass, Italian (Italian ryegrass, Lolium multiflorum); assay: Test A postemergence, ryegrass, Italian; settings: 0 to 100 scale, 0 no effect, 100 complete control
Source text: as §1

[13] = system: blackgrass (Alopecurus myosuroides); assay: Test A postemergence, blackgrass; settings: 0 to 100 scale, 0 no effect, 100 complete control
Source text: as §1

[14] = system: foxtail, giant (giant foxtail, Setaria faberii); assay: Test A postemergence, foxtail, giant; settings: 0 to 100 scale, 0 no effect, 100 complete control
Source text: as §1

[15] = system: ryegrass, Italian (Italian ryegrass, Lolium multiflorum); assay: Test A preemergence, ryegrass, Italian; settings: 0 to 100 scale, 0 no effect, 100 complete control
Source text: as §1

[16] = system: sedge, umbrella (small-flower umbrella sedge, Cyperus difformis); assay: Test B flooded paddy test, sedge, umbrella; settings: Flood, scale 0 to 100 (0 no effect, 100 complete control), 13 to 15 d
Procedure: as §2

[17] = system: galium (catchweed bedstraw, Galium aparine); assay: Test A postemergence, galium; settings: 0 to 100 scale, 0 no effect, 100 complete control
Source text: as §1

[18] = system: barnyardgrass (Echinochloa crus-galli); assay: Test B flooded paddy test, barnyardgrass; settings: Flood, scale 0 to 100 (0 no effect, 100 complete control), 13 to 15 d
Procedure: as §2

[19] = system: wheat (Triticum aestivum); assay: Test A postemergence, wheat; settings: 0 to 100 scale, 0 no effect, 100 complete control
Source text: as §1

[20] = system: barnyardgrass (Echinochloa crus-galli); assay: Test A postemergence, barnyardgrass; settings: 0 to 100 scale, 0 no effect, 100 complete control
Source text: as §1

CN1CC(c2cccc(C(F)(F)F)c2)N(C(=O)Nc2ccccc2F)C1=O (stereo not drawn) [Compound 16]
Plant response rating, Pigweed ([1]; 31 g ai/ha): 0 | Plant response rating, Pigweed ([1]; 125 g ai/ha): 0 | Plant response rating, Barnyardgrass ([2]; 31 g ai/ha): 0 | Plant response rating, Barnyardgrass ([2]; 125 g ai/ha): 30 | Plant response rating, Rice ([3]; 250 g ai/ha): 0 | Plant response rating, Pigweed ([4]; 31 g ai/ha): 0 | Plant response rating, Pigweed ([4]; 125 g ai/ha): 0 | Plant response rating, Ragweed ([5]; 31 g ai/ha): 0 | Plant response rating, Ragweed ([5]; 125 g ai/ha): 0 | Plant response rating, Ragweed ([6]; 31 g ai/ha): 0 | Plant response rating, Ragweed ([6]; 125 g ai/ha): 0 | Plant response rating, Foxtail, Giant ([7]; 31 g ai/ha): 30 | Plant response rating, Foxtail, Giant ([7]; 125 g ai/ha): 70 | Plant response rating, Corn ([8]; 31 g ai/ha): 0 | Plant response rating, Corn ([8]; 125 g ai/ha): 0 | Plant response rating, Kochia ([9]; 31 g ai/ha): 0 | Plant response rating, Kochia ([9]; 125 g ai/ha): 0 | Plant response rating, Ducksalad ([10]; 250 g ai/ha): 0 | Plant response rating, Kochia ([11]; 31 g ai/ha): 0 | Plant response rating, Kochia ([11]; 125 g ai/ha): 0 | Plant response rating, Ryegrass, Italian ([12]; 31 g ai/ha): 0 | Plant response rating, Ryegrass, Italian ([12]; 125 g ai/ha): 0 | Plant response rating, Blackgrass ([13]; 31 g ai/ha): 0 | Plant response rating, Blackgrass ([13]; 125 g ai/ha): 0 | Plant response rating, Foxtail, Giant ([14]; 31 g ai/ha): 0 | Plant response rating, Foxtail, Giant ([14]; 125 g ai/ha): 10 | Plant response rating, Ryegrass, Italian ([15]; 31 g ai/ha): 0 | Plant response rating, Ryegrass, Italian ([15]; 125 g ai/ha): 0 | Plant response rating, Sedge, Umbrella ([16]; 250 g ai/ha): 0 | Plant response rating, Galium ([17]; 31 g ai/ha): 0 | Plant response rating, Galium ([17]; 125 g ai/ha): 0 | Plant response rating, Barnyardgrass ([18]; 250 g ai/ha): 0 | Plant response rating, Wheat ([19]; 31 g ai/ha): 0 | Plant response rating, Wheat ([19]; 125 g ai/ha): 0 | Plant response rating, Barnyardgrass ([20]; 31 g ai/ha): 0 | Plant response rating, Barnyardgrass ([20]; 125 g ai/ha): 10

O=C1NCC(c2ccccc2)N1C(=O)Nc1cccc(F)c1F (stereo not drawn) [Compound 12, N-(2,3-difluorophenyl)-2-oxo-5-phenyl-1-imidazolidinecarboxamide]
Plant response rating, Pigweed ([1]; 125 g ai/ha): 0 | Plant response rating, Pigweed ([1]; 500 g ai/ha): 0 | Plant response rating, Barnyardgrass ([2]; 125 g ai/ha): 20 | Plant response rating, Barnyardgrass ([2]; 500 g ai/ha): 50 | Plant response rating, Rice ([3]; 1000 g ai/ha): 0 | Plant response rating, Pigweed ([4]; 125 g ai/ha): 0 | Plant response rating, Pigweed ([4]; 500 g ai/ha): 0 | Plant response rating, Ragweed ([5]; 125 g ai/ha): 0 | Plant response rating, Ragweed ([5]; 500 g ai/ha): 0 | Plant response rating, Ragweed ([6]; 125 g ai/ha): 0 | Plant response rating, Ragweed ([6]; 500 g ai/ha): 0 | Plant response rating, Foxtail, Giant ([7]; 125 g ai/ha): 60 | Plant response rating, Foxtail, Giant ([7]; 500 g ai/ha): 90 | Plant response rating, Corn ([8]; 125 g ai/ha): 0 | Plant response rating, Corn ([8]; 500 g ai/ha): 0 | Plant response rating, Kochia ([9]; 125 g ai/ha): 0 | Plant response rating, Kochia ([9]; 500 g ai/ha): 20 | Plant response rating, Ducksalad ([10]; 1000 g ai/ha): 90 | Plant response rating, Kochia ([11]; 125 g ai/ha): 0 | Plant response rating, Kochia ([11]; 500 g ai/ha): 0 | Plant response rating, Ryegrass, Italian ([12]; 125 g ai/ha): 0 | Plant response rating, Ryegrass, Italian ([12]; 500 g ai/ha): 0 | Plant response rating, Blackgrass ([13]; 125 g ai/ha): 0 | Plant response rating, Blackgrass ([13]; 500 g ai/ha): 0 | Plant response rating, Foxtail, Giant ([14]; 125 g ai/ha): 80 | Plant response rating, Foxtail, Giant ([14]; 500 g ai/ha): 80 | Plant response rating, Ryegrass, Italian ([15]; 125 g ai/ha): 0 | Plant response rating, Ryegrass, Italian ([15]; 500 g ai/ha): 0 | Plant response rating, Sedge, Umbrella ([16]; 1000 g ai/ha): 0 | Plant response rating, Galium ([17]; 125 g ai/ha): 0 | Plant response rating, Galium ([17]; 500 g ai/ha): 0 | Plant response rating, Barnyardgrass ([18]; 1000 g ai/ha): 0 | Plant response rating, Wheat ([19]; 125 g ai/ha): 0 | Plant response rating, Wheat ([19]; 500 g ai/ha): 0 | Plant response rating, Barnyardgrass ([20]; 125 g ai/ha): 60 | Plant response rating, Barnyardgrass ([20]; 500 g ai/ha): 90
